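1) Cells in 96-well plates. 2) Compound, 48 h, 5 concentrations. 3) Linear interpolation between surrounding doses. 4) Unreached endpoint = highest concentration. TGI marks complete inhibition of growth.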
Legend:
Assay in all cases: NCI anticancer screen, dose series, 48 h
786-0 renal = tested on: 786-0 renal
A498 renal = tested on: A498 renal
A549 NSCLC = tested on: A549 NSCLC
ACHN renal = tested on: ACHN renal
BT-549 breast = tested on: BT-549 breast
CAKI-1 renal = tested on: CAKI-1 renal
CCRF-CEM leukemia = tested on: CCRF-CEM leukemia
COLO 205 colon = tested on: COLO 205 colon
DU-145 prostate = tested on: DU-145 prostate
EKVX NSCLC = tested on: EKVX NSCLC
HCC-2998 colon = tested on: HCC-2998 colon
HCT-116 colon = tested on: HCT-116 colon
HCT-15 colon = tested on: HCT-15 colon
HOP-92 NSCLC = tested on: HOP-92 NSCLC
HS 578T breast = tested on: HS 578T breast
HT29 colon = tested on: HT29 colon
IGROV1 ovarian = tested on: IGROV1 ovarian
K-562 leukemia = tested on: K-562 leukemia
KM12 colon = tested on: KM12 colon
LOX IMVI melanoma = tested on: LOX IMVI melanoma
M14 melanoma = tested on: M14 melanoma
MALME-3M melanoma = tested on: MALME-3M melanoma
MCF7 breast = tested on: MCF7 breast
MDA-MB-231 breast = tested on: MDA-MB-231 breast
MDA-MB-435 = tested on: MDA-MB-435
MDA-N = tested on: MDA-N
MOLT-4 leukemia = tested on: MOLT-4 leukemia
NCI-H226 lung = tested on: NCI-H226 lung
NCI-H23 lung = tested on: NCI-H23 lung
NCI-H460 lung = tested on: NCI-H460 lung
NCI-H522 lung = tested on: NCI-H522 lung
NCI/ADR-RES ovarian = tested on: NCI/ADR-RES ovarian
OVCAR-3 ovarian = tested on: OVCAR-3 ovarian
OVCAR-4 ovarian = tested on: OVCAR-4 ovarian
OVCAR-5 ovarian = tested on: OVCAR-5 ovarian
OVCAR-8 ovarian = tested on: OVCAR-8 ovarian
PC-3 prostate = tested on: PC-3 prostate
RPMI-8226 leukemia = tested on: RPMI-8226 leukemia
RXF 393 renal = tested on: RXF 393 renal
SF-295 CNS = tested on: SF-295 CNS
SF-539 CNS = tested on: SF-539 CNS
SK-MEL-2 melanoma = tested on: SK-MEL-2 melanoma
SK-MEL-28 melanoma = tested on: SK-MEL-28 melanoma
SK-MEL-5 melanoma = tested on: SK-MEL-5 melanoma
SK-OV-3 ovarian = tested on: SK-OV-3 ovarian
SNB-19 CNS = tested on: SNB-19 CNS
SNB-75 CNS = tested on: SNB-75 CNS
SR leukemia = tested on: SR leukemia
SW-620 colon = tested on: SW-620 colon
T-47D breast = tested on: T-47D breast
TK-10 renal = tested on: TK-10 renal
U251 CNS = tested on: U251 CNS
UACC-257 melanoma = tested on: UACC-257 melanoma
UACC-62 melanoma = tested on: UACC-62 melanoma
UO-31 renal = tested on: UO-31 renal
HL-60(TB) leukemia = tested on: HL-60(TB) leukemia
HOP-62 NSCLC = tested on: HOP-62 NSCLC
SF-268 CNS = tested on: SF-268 CNS
SN12C renal = tested on: SN12C renal

SMILES: O=C1c2ccccc2CCC1C(O)(C(F)(F)F)C(F)(F)F (centres undefined)
- TGI (786-0 renal): > 100 µM
- TGI (A498 renal): > 100 µM
- TGI (A549 NSCLC): > 100 µM
- TGI (ACHN renal): > 100 µM
- TGI (BT-549 breast): > 100 µM
- TGI (CAKI-1 renal): > 100 µM
- TGI (CCRF-CEM leukemia): > 100 µM
- TGI (COLO 205 colon): > 100 µM
- TGI (DU-145 prostate): > 100 µM
- TGI (EKVX NSCLC): > 100 µM
- TGI (HCC-2998 colon): > 100 µM
- TGI (HCT-116 colon): > 100 µM
- TGI (HCT-15 colon): > 100 µM
- TGI (HOP-92 NSCLC): > 100 µM
- TGI (HS 578T breast): > 100 µM
- TGI (HT29 colon): > 100 µM
- TGI (IGROV1 ovarian): > 100 µM
- TGI (K-562 leukemia): > 100 µM
- TGI (KM12 colon): > 100 µM
- TGI (LOX IMVI melanoma): > 100 µM
- TGI (M14 melanoma): > 100 µM
- TGI (MALME-3M melanoma): > 100 µM
- TGI (MCF7 breast): > 100 µM
- TGI (MDA-MB-231 breast): > 100 µM
- TGI (MDA-MB-435): > 100 µM
- TGI (MDA-N): > 100 µM
- TGI (MOLT-4 leukemia): > 100 µM
- TGI (NCI-H226 lung): > 100 µM
- TGI (NCI-H23 lung): > 100 µM
- TGI (NCI-H460 lung): > 100 µM
- TGI (NCI-H522 lung): > 100 µM
- TGI (NCI/ADR-RES ovarian): > 100 µM
- TGI (OVCAR-3 ovarian): > 100 µM
- TGI (OVCAR-4 ovarian): > 100 µM
- TGI (OVCAR-5 ovarian): > 100 µM
- TGI (OVCAR-8 ovarian): > 100 µM
- TGI (PC-3 prostate): > 100 µM
- TGI (RPMI-8226 leukemia): > 100 µM
- TGI (RXF 393 renal): > 100 µM
- TGI (SF-295 CNS): > 100 µM
- TGI (SF-539 CNS): > 100 µM
- TGI (SK-MEL-2 melanoma): > 100 µM
- TGI (SK-MEL-28 melanoma): > 100 µM
- TGI (SK-MEL-5 melanoma): > 100 µM
- TGI (SK-OV-3 ovarian): > 100 µM
- TGI (SNB-19 CNS): > 100 µM
- TGI (SNB-75 CNS): > 100 µM
- TGI (SR leukemia): > 100 µM
- TGI (SW-620 colon): > 100 µM
- TGI (T-47D breast): > 100 µM
- TGI (TK-10 renal): > 100 µM
- TGI (U251 CNS): > 100 µM
- TGI (UACC-257 melanoma): > 100 µM
- TGI (UACC-62 melanoma): > 100 µM
- TGI (UO-31 renal): > 100 µM

SMILES: CCN(CC)CCN1C=CC(C)C(C(=O)O)C1C(N)=O (centres undefined)
- TGI (786-0 renal): > 100 µM
- TGI (A498 renal): > 100 µM
- TGI (A549 NSCLC): > 100 µM
- TGI (ACHN renal): > 100 µM
- TGI (BT-549 breast): > 100 µM
- TGI (CAKI-1 renal): > 100 µM
- TGI (CCRF-CEM leukemia): > 100 µM
- TGI (COLO 205 colon): > 100 µM
- TGI (DU-145 prostate): > 100 µM
- TGI (EKVX NSCLC): > 100 µM
- TGI (HCC-2998 colon): > 100 µM
- TGI (HCT-116 colon): > 100 µM
- TGI (HCT-15 colon): > 100 µM
- TGI (HL-60(TB) leukemia): > 100 µM
- TGI (HOP-62 NSCLC): > 100 µM
- TGI (HOP-92 NSCLC): > 100 µM
- TGI (HS 578T breast): > 100 µM
- TGI (HT29 colon): > 100 µM
- TGI (IGROV1 ovarian): > 100 µM
- TGI (K-562 leukemia): > 100 µM
- TGI (KM12 colon): > 100 µM
- TGI (LOX IMVI melanoma): > 100 µM
- TGI (M14 melanoma): > 100 µM
- TGI (MCF7 breast): > 100 µM
- TGI (MDA-MB-231 breast): > 100 µM
- TGI (MDA-MB-435): > 100 µM
- TGI (MDA-N): > 100 µM
- TGI (MOLT-4 leukemia): > 100 µM
- TGI (NCI-H226 lung): > 100 µM
- TGI (NCI-H23 lung): > 100 µM
- TGI (NCI-H460 lung): > 100 µM
- TGI (NCI-H522 lung): > 100 µM
- TGI (NCI/ADR-RES ovarian): > 100 µM
- TGI (OVCAR-3 ovarian): > 100 µM
- TGI (OVCAR-4 ovarian): > 100 µM
- TGI (OVCAR-5 ovarian): > 100 µM
- TGI (OVCAR-8 ovarian): > 100 µM
- TGI (PC-3 prostate): > 100 µM
- TGI (RPMI-8226 leukemia): > 100 µM
- TGI (RXF 393 renal): > 100 µM
- TGI (SF-268 CNS): > 100 µM
- TGI (SF-295 CNS): > 100 µM
- TGI (SK-MEL-2 melanoma): > 100 µM
- TGI (SK-MEL-28 melanoma): > 100 µM
- TGI (SK-MEL-5 melanoma): > 100 µM
- TGI (SK-OV-3 ovarian): > 100 µM
- TGI (SN12C renal): > 100 µM
- TGI (SNB-19 CNS): > 100 µM
- TGI (SNB-75 CNS): > 100 µM
- TGI (SR leukemia): > 100 µM
- TGI (SW-620 colon): > 100 µM
- TGI (T-47D breast): > 100 µM
- TGI (TK-10 renal): > 100 µM
- TGI (U251 CNS): > 100 µM
- TGI (UACC-257 melanoma): > 100 µM
- TGI (UACC-62 melanoma): > 100 µM
- TGI (UO-31 renal): > 100 µM

SMILES: COc1cc(OC)cc(C(=O)NC2=C(Cl)C(=O)c3ccccc3C2=O)c1
- TGI (A498 renal): 27.1 µM
- TGI (A549 NSCLC): > 38.3 µM
- TGI (ACHN renal): 2.83 µM
- TGI (BT-549 breast): 9.22 µM
- TGI (CAKI-1 renal): 17.7 µM
- TGI (CCRF-CEM leukemia): 3.99 µM
- TGI (COLO 205 colon): 15.6 µM
- TGI (DU-145 prostate): 16.8 µM
- TGI (EKVX NSCLC): > 39.6 µM
- TGI (HCC-2998 colon): 13.8 µM
- TGI (HCT-116 colon): 2.35 µM
- TGI (HCT-15 colon): 10.4 µM
- TGI (HOP-62 NSCLC): 27.8 µM
- TGI (HOP-92 NSCLC): 2.89 µM
- TGI (HS 578T breast): 24.4 µM
- TGI (HT29 colon): 10.9 µM
- TGI (IGROV1 ovarian): 12.9 µM
- TGI (K-562 leukemia): 4.01 µM
- TGI (KM12 colon): 10.4 µM
- TGI (LOX IMVI melanoma): 5.14 µM
- TGI (M14 melanoma): 6.67 µM
- TGI (MALME-3M melanoma): 3.31 µM
- TGI (MCF7 breast): 8.73 µM
- TGI (MDA-MB-231 breast): 29.2 µM
- TGI (MDA-MB-435): 4.48 µM
- TGI (MDA-N): 5.13 µM
- TGI (MOLT-4 leukemia): 6.12 µM
- TGI (NCI-H226 lung): 12 µM
- TGI (NCI-H23 lung): 7.93 µM
- TGI (NCI-H460 lung): 9.24 µM
- TGI (NCI-H522 lung): 2.47 µM
- TGI (NCI/ADR-RES ovarian): 11.9 µM
- TGI (OVCAR-3 ovarian): 5.54 µM
- TGI (OVCAR-4 ovarian): 6.01 µM
- TGI (OVCAR-5 ovarian): 16.6 µM
- TGI (OVCAR-8 ovarian): 17.6 µM
- TGI (PC-3 prostate): 10.9 µM
- TGI (RPMI-8226 leukemia): > 21.7 µM
- TGI (RXF 393 renal): 4.09 µM
- TGI (SF-268 CNS): 12.8 µM
- TGI (SF-295 CNS): 9.91 µM
- TGI (SF-539 CNS): 18.5 µM
- TGI (SK-MEL-2 melanoma): 4.01 µM
- TGI (SK-MEL-28 melanoma): 19 µM
- TGI (SK-MEL-5 melanoma): 5.35 µM
- TGI (SK-OV-3 ovarian): 11.2 µM
- TGI (SN12C renal): 13.1 µM
- TGI (SNB-19 CNS): 21.9 µM
- TGI (SNB-75 CNS): 12.3 µM
- TGI (SR leukemia): > 23.1 µM
- TGI (SW-620 colon): 2.65 µM
- TGI (T-47D breast): 3.51 µM
- TGI (TK-10 renal): 7.68 µM
- TGI (U251 CNS): 9.42 µM
- TGI (UACC-257 melanoma): 6.2 µM
- TGI (UACC-62 melanoma): 1.22 µM
- TGI (UO-31 renal): 9.42 µM

From PubChem BioAssay (NCI)
